Laboratory results as given in the supplement of paper PMC10307832.

Columns and labels:
Assay in all cases: relative viability (nuclei count vs DMSO), 5 days (fraction); higher = more cells survive
[1] = compound: COc1cc([C@@H]2c3cc4c(cc3[C@@H](O[C@@H]3O[C@@H]5CO[C@@H](C)O[C@H]5[C@H](O)[C@H]3O)[C@H]3COC(=O)[C@H]23)OCO4)cc(OC)c1O [Etoposide] + CCNC(=O)c1noc(-c2cc(C(C)C)c(O)cc2O)c1-c1ccc(CN2CCOCC2)cc1 [Luminespib] (partner 0.01 µM)
Method in brief: (§1)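 For relative viability, nuclei counts in treated wells were divided by those in vehicle wells. Lung cancer cell lines had been pin-tool dosed in 1536-well plates the day after seeding and cultured for 5 days, then fixed and stained in one step (final 0.05% Triton X-100, 1% formaldehyde, 1 ug/ml Hoechst) and imaged at 4×. Doses were one drug alone or a fixed anchor-drug dose plus five library-drug doses (not always all listed) in √10 steps, and values are duplicate-plate medians.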

[2] = compound: COc1cc([C@@H]2c3cc4c(cc3[C@@H](O[C@@H]3O[C@@H]5CO[C@@H](C)O[C@H]5[C@H](O)[C@H]3O)[C@H]3COC(=O)[C@H]23)OCO4)cc(OC)c1O [Etoposide] + Cc1nc(NC(=O)N2CCC[C@H]2C(N)=O)sc1-c1ccnc(C(C)(C)C(F)(F)F)c1 [Alpelisib] (partner 2 µM)
Method in brief: as §1

[3] = compound: CC1=C(N=C(N=C1N)[C@H](CC(=O)N)NC[C@@H](C(=O)N)N)C(=O)N[C@@H]([C@H](C2=CN=CN2)OC3C(C(C(C(O3)CO)O)O)OC4C(C(C(C(O4)CO)O)OC(=O)N)O)C(=O)N[C@H](C)[C@H]([C@H](C)C(=O)N[C@@H]([C@@H](C)O)C(=O)NCCC5=NC(=CS5)C6=NC(=CS6)C(=O)NCCC[S+](C)C)O [Bleomycin] + N=C(N)NC(=N)NCCc1ccccc1 [Phenformin] (partner 250 µM); details: main component drawn
Method in brief: as §1

[4] = compound: CC1=C(N=C(N=C1N)[C@H](CC(=O)N)NC[C@@H](C(=O)N)N)C(=O)N[C@@H]([C@H](C2=CN=CN2)OC3C(C(C(C(O3)CO)O)O)OC4C(C(C(C(O4)CO)O)OC(=O)N)O)C(=O)N[C@H](C)[C@H]([C@H](C)C(=O)N[C@@H]([C@@H](C)O)C(=O)NCCC5=NC(=CS5)C6=NC(=CS6)C(=O)NCCC[S+](C)C)O [Bleomycin] + CC1(C)CCC(c2ccc(Cl)cc2)=C(CN2CCN(c3ccc(C(=O)NS(=O)(=O)c4ccc(N[C@H](CCN5CCOCC5)CSc5ccccc5)c(S(=O)(=O)C(F)(F)F)c4)cc3)CC2)C1 [Navitoclax] (partner 0.5 µM); details: main component drawn
Method in brief: as §1

Cell Line | relative viability ([1]; first compound 0.01 µM) | relative viability ([1]; first compound 0.03162 µM) | relative viability ([1]; first compound 0.1 µM) | relative viability ([1]; first compound 0.3162 µM) | relative viability ([1]; first compound 1 µM) | relative viability ([2]; first compound 0.01 µM) | relative viability ([2]; first compound 0.03162 µM) | relative viability ([2]; first compound 0.1 µM) | relative viability ([2]; first compound 0.3162 µM) | relative viability ([2]; first compound 1 µM) | relative viability ([3]; first compound 0.01 µM) | relative viability ([3]; first compound 0.03162 µM) | relative viability ([3]; first compound 0.1 µM) | relative viability ([3]; first compound 0.3162 µM) | relative viability ([3]; first compound 1 µM) | relative viability ([4]; first compound 0.01 µM) | relative viability ([4]; first compound 0.03162 µM) | relative viability ([4]; first compound 0.1 µM) | relative viability ([4]; first compound 0.3162 µM) | relative viability ([4]; first compound 1 µM)
201T | 0.839 | 1.11 | 0.952 | 0.754 | 0.539 | 1.02 | 1.06 | 0.921 | 0.94 | 0.691 | 0.447 | 0.436 | 0.47 | 0.361 | 0.364 | 1.17 | 1.13 | 1.18 | 1.16 | 1.04
A549 |  |  |  |  |  | 0.737 | 0.793 | 0.375 | 0.224 | 0.0497 | 0.143 | 0.139 | 0.444 | 0.0518 | 0.0392 | 0.933 | 0.827 | 0.54 | 0.127 | 0.0446
A-427 | 0.832 | 1.02 | 0.61 | 0.382 | 0.182 | 1.07 | 1.14 | 0.713 | 0.755 | 0.229 | 0.253 | 0.349 | 0.269 | 0.175 | 0.113 | 0.844 | 0.888 | 0.991 | 0.787 | 0.27
ABC-1 | 0.35 | 0.648 | 0.33 | 0.351 | 0.29 | 1.03 | 1.1 | 1.02 | 0.577 | 0.243 | 0.241 | 0.234 | 0.258 | 0.239 | 0.199 |  |  |  |  | 
BEN | 0.235 | 0.583 |  | 0.206 | 0.245 | 0.841 | 1.08 |  | 0.87 | 0.852 | 0.247 | 0.277 | 0.251 | 0.24 | 0.235 | 0.0606 | 0.0742 | 0.0676 | 0.0599 | 0.0555
CAL-12T | 0.28 | 0.531 | 0.212 | 0.287 | 0.348 | 1.15 | 1.2 | 1.32 | 0.799 | 0.306 | 0.474 | 0.466 | 0.297 | 0.175 | 0.163 | 0.964 | 0.785 | 0.551 | 0.228 | 0.201
COR-L23 | 0.573 | 0.802 | 0.536 | 0.214 | 0.153 | 0.543 | 0.891 | 0.771 | 0.461 | 0.219 | 0.316 | 0.292 | 0.219 | 0.123 | 0.123 | 0.811 | 0.723 | 0.332 | 0.0914 | 0.104
COR-L 105 | 0.96 | 0.765 | 0.758 | 0.625 | 0.776 | 1.08 | 1.06 | 1.12 | 0.807 | 0.56 | 0.49 | 0.394 | 0.399 | 0.315 | 0.35 | 0.59 | 0.884 | 0.716 | 0.483 | 0.28
Calu-6 |  |  |  |  |  | 0.837 | 1.08 | 0.798 | 0.709 | 0.338 |  |  |  |  |  | 0.459 | 0.336 | 0.207 | 0.114 | 0.0817
ChaGo-K-1 | 0.467 | 0.473 | 0.38 | 0.211 | 0.229 |  |  |  |  |  | 0.383 | 0.39 | 0.384 | 0.297 | 0.217 |  | 0.914 | 0.724 | 0.386 | 0.307
EBC-1 |  |  |  |  |  | 0.841 | 0.909 | 0.452 | 0.75 | 0.38 |  |  |  |  |  | 0.392 | 0.527 | 0.379 | 0.274 | 0.269
EKVX | 0.921 | 0.885 | 0.444 | 0.658 | 0.307 | 0.693 | 0.974 | 0.584 | 0.693 | 0.343 | 0.234 | 0.255 | 0.196 | 0.2 | 0.157 | 0.75 | 0.925 | 0.842 | 0.424 | 0.285
EMC-BAC-2 | 0.895 | 0.932 | 0.651 | 0.297 | 0.248 | 0.711 | 0.65 | 0.522 | 0.238 | 0.15 | 0.46 | 0.468 | 0.391 | 0.275 | 0.217 | 1.04 | 1.18 | 0.979 | 0.661 | 0.399
EPLC-272H | 0.185 | 0.238 | 0.207 | 0.265 | 0.12 | 0.965 | 0.934 | 0.606 | 0.931 | 0.539 | 0.247 | 0.286 | 0.228 | 0.173 | 0.116 | 0.793 | 0.888 | 0.826 | 1.29 | 0.159
H3255 | 0.877 | 0.829 | 0.576 | 0.703 | 0.379 | 0.606 | 0.758 | 0.448 | 0.585 | 0.298 | 0.35 | 0.372 | 0.367 | 0.301 | 0.301 | 0.395 | 0.596 | 0.495 | 0.229 | 0.179
HARA | 0.403 | 0.999 | 0.682 | 0.226 | 0.106 | 0.649 | 0.854 | 0.792 | 0.584 | 0.167 | 0.432 | 0.503 | 0.493 | 0.361 | 0.178 | 1.1 | 1.08 | 1.02 | 0.747 | 0.601
